Test results reported in patent US6113907A, “Pharmaceutical grade St. John's Wort” (priority 1997, dated 2000).
Like-named read-outs stand apart in the source and are kept apart here.

How the values were obtained:
[1] = mice; cited from earlier work
MAO = details: cited from earlier work
MAOA = biological target: T1, MAOA (Rattus norvegicus, UniProt P21396); experiment: NIMH/NovaScreen screen, MAOA; assay type: biochemical
T1 sequence (P21396 1-526): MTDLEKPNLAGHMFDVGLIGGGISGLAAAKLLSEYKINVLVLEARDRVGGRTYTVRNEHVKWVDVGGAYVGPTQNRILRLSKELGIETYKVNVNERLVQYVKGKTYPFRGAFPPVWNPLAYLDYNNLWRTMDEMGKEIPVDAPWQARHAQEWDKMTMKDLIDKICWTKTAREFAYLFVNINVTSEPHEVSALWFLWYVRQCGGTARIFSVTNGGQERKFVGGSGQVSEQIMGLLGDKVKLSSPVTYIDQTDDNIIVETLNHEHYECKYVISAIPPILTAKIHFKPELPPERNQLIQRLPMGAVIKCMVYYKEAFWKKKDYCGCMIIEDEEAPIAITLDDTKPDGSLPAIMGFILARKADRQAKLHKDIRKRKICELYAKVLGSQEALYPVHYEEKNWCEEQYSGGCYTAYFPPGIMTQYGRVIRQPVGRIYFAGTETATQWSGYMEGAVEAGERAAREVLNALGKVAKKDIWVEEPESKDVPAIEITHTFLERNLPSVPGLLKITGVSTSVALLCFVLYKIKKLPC

[2] = system: human immunodeficiency virus type 1 (HIV-1); details: cited from earlier work
MAOB = experiment: NIMH/NovaScreen screen, MAOB; assay type: biochemical; details: up to 0.1 mM
Description: (§1) Through an NIMH screening contract (NovaScreen™, Baltimore, Md.) a commercially available crude extract from the fresh flowers and buds of Hypericum perforatum [1:1.5; hydro-alcohol (40:60) made from flowering tops; Herb Pharm] containing ~0.1% hypericin was dried under vacuum, dissolved in 4% DMSO, and diluted to an initial concentration of 50 mg/ml for in vitro screening in a battery of 39 receptor assays and two enzyme systems (Table 5, below).

herpes simplex = details: cited from earlier work
murine cytomegalovirus = details: cited from earlier work
protein kinase C = details: cited from earlier work
opiate receptor = opiate receptor non-selective, [3H] naloxone, rat forebrain; assay type: binding
Description: To determine the inhibitory activity of the substances for the dopamine receptor (dp) the following assay was preformed. A partial receptor preparation was prepared from bovine striatal membranes using [^3 H] spiperone as the ligand at a final concentration of 0.3 nM. To determine non-specific binding cold spiperone was tested at 1 μM. The reactions were carried out in 50 mM Tris-HCl (pH 7.7) containing 120 mM NaCl, 5 mM KCl, 2 mM CaCl2 and 1 mM MgCl2 at 37° C. for 60 minutes. […] The inhibitory properties of the substances for binding of ligand to the adenosine receptor (ADNS) was measured using a partially purified receptor preparation made from bovine striatal membranes. The radioligand used was [^3 H] 5'-N-ethylcarboxyamidoadenosine (NECA) at a final ligand concentration of 4 nM. Non-specific binding was determined in the presence of 10 μM NECA. The reactions were carried out in 50 mM Tris-HCL (pH 7.7) for 60 minutes at 25° C. […] To measure the inhibitory activity of the substances for the opiate receptor (Opiate) receptor was partially purified from rat forebrains. [^3 H] naloxone at 1 nM as the ligand used. Non-specific binding was determined in the presence of 1 μM of naloxone. […] Non-specific binding was determined in the presence of 1 μM nicotine sulfate. […] Non-specific binding was determined in the presence of 1 μM Tyr-° CRF. […]

Sindbis virus = details: cited from earlier work
[3] = system: Receptor tyrosine kinase of epidermal growth factor; details: cited from earlier work
serotonin transporter = biological target: T2, serotonin transporter (Rattus norvegicus, UniProt P31652); experiment: serotonin transporter assay, [125I]-RTI-121, rat cerebral cortical membranes; assay type: binding
T2 construct: Cerebral cortical membranes derived from male Wistar rats; from tissue; host or cells: cerebral cortical membranes of male Wistar rats
T2 sequence (P31652 whole entry): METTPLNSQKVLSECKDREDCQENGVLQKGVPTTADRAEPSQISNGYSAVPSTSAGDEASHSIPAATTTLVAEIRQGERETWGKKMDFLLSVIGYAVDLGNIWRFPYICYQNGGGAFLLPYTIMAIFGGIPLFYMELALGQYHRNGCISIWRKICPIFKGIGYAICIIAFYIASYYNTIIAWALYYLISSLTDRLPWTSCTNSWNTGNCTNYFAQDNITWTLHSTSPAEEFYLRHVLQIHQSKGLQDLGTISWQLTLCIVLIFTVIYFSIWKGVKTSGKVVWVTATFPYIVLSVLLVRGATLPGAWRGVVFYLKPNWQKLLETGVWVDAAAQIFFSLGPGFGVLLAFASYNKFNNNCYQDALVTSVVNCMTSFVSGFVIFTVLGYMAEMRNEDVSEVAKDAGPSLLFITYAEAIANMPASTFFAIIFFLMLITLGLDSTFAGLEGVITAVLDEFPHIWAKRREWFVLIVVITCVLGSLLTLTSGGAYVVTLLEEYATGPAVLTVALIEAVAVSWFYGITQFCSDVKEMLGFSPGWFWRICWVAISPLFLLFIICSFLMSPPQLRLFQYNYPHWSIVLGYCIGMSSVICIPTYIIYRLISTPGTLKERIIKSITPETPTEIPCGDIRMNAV

NMDA = experiment: Receptor Binding by Hypericin, NMDA
Description: as §1

Cc1cc(O)c2c(=O)c3c(O)cc(O)c4c5c(O)cc(O)c6c(=O)c7c(O)cc(C)c8c1c2c(c34)c(c78)c65 [Hypericin, hypericin]
antiviral activity in vivo [1]: show antiviral activity in vivo (mice)
concentration inhibiting MAO (MAO; Suzuki et al., 80% purity): 50 µg/mL
confirmation of MAO inhibition (MAO): failed to confirm this effect
inhibition at 10 µM (MAOA; 10 μM): 27%
inhibition at 100 µM (MAOA; 100 μM): 20.8%
MAOA inhibition (MAOA; up to 0.1 mM): lacked significant MAOA or MAO-^B inhibition
inhibition of HIV-1 [2]: inhibit
MAO-B inhibition (MAOB): lacked significant MAOA or MAO-^B inhibition
inhibition of herpes simplex (herpes simplex): inhibit
activity against murine cytomegalovirus (murine cytomegalovirus): Activity has also been reported
protein kinase C IC50 (protein kinase C): 1.7 µg/mL
OPNS (opiate receptor; 10^-4, Table 9I, 100 µM): 44%
Opiate NS % inhibition (PharmaPrint range) (opiate receptor; 10^-4 M): 70 ± 35%
activity against Sindbis virus (Sindbis virus): Activity has also been reported
receptor tyrosine kinase activity of epidermal growth factor [3]: inhibited
inhibition at 100 µM (serotonin transporter; 10^-4, read-out: Sero): 51%
inhibition at 100 µM (serotonin transporter; 10^-4 M, read-out: Sero % inhibition (PharmaPrint range)): 51 ± 2%
IC50 (serotonin transporter; read-out: Sero (concentration)): 4000 nM
% Inhibition NMDA (NMDA; 1 μM): 48.5%
% Inhibition NMDA (NMDA; 10 μM): 81.7%
% Inhibition NMDA (NMDA; 100 μM): -20.7%
% Inhibition NMDA (NMDA; .001 μM): 10.5%
% Inhibition NMDA (NMDA; .01 μM): 24.5%
% Inhibition NMDA (NMDA; .1 μM): -0.3%
Ki (NMDA; read-out: Ki NMDA): ~1000 nM
Ki (NMDA; read-out: ~Ki NMDA (Table 7)): ~1100 nM
